Results reported in patent publication US9182385B2, “Methods for diagnosis, prognosis and methods of treatment” (NODALITY, INC., priority 2007, dated 2015).

How the values were obtained:
CLL cells = assay: Phospho-specific multiparametric flow cytometry of BCR signaling in CLL patient samples; type: cell-based, human
Method: (§1) Ramos cells were maintained and cultured using methods known in the art. Cells from CLL patients were obtained using methods known in the art.
(§2) The cell suspension was added drop-wise into media. […] Cells were incubated at 37° C. for 2 hours. […] Cells were aliquoted into wells.
(§3) Cells were washed twice. […] Cocktail • (i) CD3 pac blue=160 μl • (ii) CD4 APC=80 μl • (iii) CD8 PE Cy7=80 μl • (iv) CD5 PE Cy5=400 μl • (v) CD20 PerCP Cy5.5=800 μl • (vi) p-Erk=800 μl • (vii) p-BLNK=800 μl • (viii) p-Syk/ZAP70=800 μl • b. […] Each well received 100 μl of this cocktail mix.
Cells were prepared and stained as described above.

[1] = tested on: blood B cells from healthy donors
Method: BCR cross-linking and preparation for staining: Cells were thawed at 37° C. in a water bath until partially thawed (˜50%). Cells were thawed into 5% FBS/RPMI at room temperature. The cell suspension was added drop-wise into media. Cells were centrifuged at 900 RPM for 10 minutes with no brake. The supernatants were decanted and pellets resuspended in 25 milliliters (ml) of media. Cells were re-centrifuged at 900 RPM for 10 minutes, decanted again and resuspended in 5 ml of 1% FBS/RPMI. Cells were counted with a hemocytometer using trypan blue staining. The concentration of the cells was adjusted as necessary to reduce crowding. Cells were incubated at 37° C. for 2 hours. The final cell concentration, including additives and reagents (e.g. stimulant, Fab fragment, H2O2, aqua, etc.) was 1.6 million/ml. Cells were aliquoted into wells. […]
Analysis by Flow Cytometry: Between 10,000 and 100,000 un-gated events were collected for each sample on the BD LSR II flow cytometry machine. The fluorescent anti-bodies directed to extra-cellular markers (i.e. CD3, CD4, CD8, CD5 and CD20) were used to mark the cells and a hierarchical gating strategy was used to identify the B-Cells and mature B-Cell population among the recorded events as described below: • a. […] All the recorded events were also marked by the following intra-cellular markers p-Erk, p-Syk/Zap70, and p-BLNK. […]

Ramos cells = assay: Phospho-specific multiparametric flow cytometry of BCR signaling in Ramos cells; type: cell-based; settings: FIG. 1, fluorescence above autofluorescence and background
Method: as §1, §2, §3

[2] = CD20+/CD5+ cell population of CLL samples, kinetics

SMILES	PLCγ2 phosphorylation (CLL cells; [2])	phosphorylation of rpS6 (CLL cells; [2])	levels of phosphorylated p72SYK/p70ZAP, ERK1/2, BLNK, and PLCγ2 (CLL cells; CLL cells of some patients, independent of surface F(ab)2anti-μ ligation)	activation of Erk and Syk (CLL cells; CLL samples, inhibition of phosphatases, FIG. 6)	tonic BCR signaling revealed by inhibition of phosphatases (CLL cells; other CLL samples, FIG. 10)	responsiveness (phosphorylated p72SYK/p70ZAP, ERK1/2, BLNK, PLCγ2) (CLL cells; other CLL-B cells, even in the presence of F(ab)2anti-μ)	phosphorylation of p72SYK/p70ZAP, ERK1/2, BLNK, PLCγ2 ([1]; blood B cells from healthy donors)	activation of signaling post BCR ([1]; normal B cells, H2O2 by itself, FIG. 7)	activation of p-Erk and p-Syk/pZap70 (Ramos cells)	activation of p-Erk across patients (CLL cells; CLL patient samples, regardless of ZAP70 expression (summary))	p-Erk and p-Syk phosphorylation (CLL cells; CLL samples with low and high frequency of ZAP70, FIG. 5)	Erk and Syk phosphorylation (CLL cells; other CLL samples, FIG. 9)	activation of Erk (CLL cells; pheresed CLL samples, FIG. 3)
OO [H2O2, hydrogen peroxide]	increased	attenuates	induced high-levels	activates	does not reveal strong tonic BCR signaling	significantly less responsive	failed to elicit a substantial increase	incapable of activating post BCR by itself	–	–	–	–	–
CCCCCCCCCCCCCC(=O)O[C@@H]1[C@@H](C)[C@@]2(O)[C@@H](C=C(CO)C[C@]3(O)C(=O)C(C)=C[C@@H]23)[C@@H]2C(C)(C)[C@]12OC(C)=O [PMA]	–	–	–	–	–	–	–	–	activates	comparable in all patients	modest	modest	activates
